Patent US20250041577A1, “SHORT-PULSE SONODYNAMIC TREATMENT APPARATUS” (Insightec, Ltd., priority 2021, published 2025)
Where two headings read alike, the source gives them in different places.

Assays:
[1] = Plasma and blood pharmacokinetics of 5-ALA and PPIX after IV SONALA-001 (LC-MS/MS); format: in vivo; conditions: human, plasma; 10 mg/kg IV Sonala-001; recurrent GBM patients; read-out: median Cmax for 5-ALA in plasma
Experimental: Six hours prior to MRgFUS, adult patients with recurrent GBM are administered SONALA-001 (10 mg/kg), an investigational IV formulation of […]. Oral […] is an FDA- and […] agent used in fluorescence-guided surgery to visualize glioma infiltration and maximize extent of resection. LCMS/MS methods were developed to determine the levels of […] and PPIX in plasma and blood following IV administration of SONALA-001. Samples were analyzed using SCIEX ExionLC UHPLC system and the detection was performed on SCIEX QTRAP 6500+ mass spectrometer by multiple reaction monitoring mode to monitor the precursor-to-product ion transitions in positive electrospray ionization mode.

[2] = human, in vivo
From the text: Performed similarly to Example 1 with same study drug but for Diffuse Intrinsic Pontine Glioma (DIPG) and with typically only radiation therapy performed prior.
Performed similarly to Example 1 but with an increase in the number of subspots per sonication (32 subspots). Targets were overlapped with a 2.0-3.0 mm spot to spot separation and Duty Cycle within 4-32% throughout the study. Pulse duration ranged from 0.0002 to 0.002 second.
Similar to Example 1, this multi-center, non-randomized, open label, first-in-pediatric Phase 1/2 study is a drug dose (5, 10, or 15 mg/kg SONALA-001) and focused ultrasound energy (200J, 400J, or 800J) escalation study containing 18-24 subjects, 9 cohorts of approximately 3 patients each. These pediatric patients with DIPG must have completed standard-of-care radiotherapy prior to radiographic treatment. No resection due to location but biopsy can be obtained. In the first patient, half of the Pons volume is targeted with MRgFUS and the other half serves as an internal control for safety. If no DLTs or any grade intracranial hemorrhage and any clinical symptoms (CTCAE, Version 5.0, i.e., intracranial hemorrhage Grades 2-5) are observed, the next patients will receive treatment over the entire pons. The intervention model will be sequential assignment using a Bayesian optimal interval (BOIN) dose escalation method. […]

[3] = Drug and device safety of 5-ALA SDT in recurrent GBM patients (Phase 0/1); format: in vivo, human; conditions: three adult recurrent GBM patients
Experimental: Six hours prior to MRgFUS, adult patients with recurrent GBM are administered SONALA-001 (10 mg/kg), an investigational IV formulation of […]. Oral […] is an FDA- and […] agent used in fluorescence-guided surgery to visualize glioma infiltration and maximize extent of resection. The […] Model 4000 Type-2 system is an investigational MRgFUS with a 1000-element transducer utilizing real-time MR imaging during treatment delivery. It includes the same monitoring capabilities as the ablative, FDA-approved Type-1 system for essential tremor and tremor-dominant Parkinson's Disease. However, the Type-2 device can target a large range of brain anatomy and operates at relatively low ultrasound frequencies and intensities, preventing tissue heating when inducing sonoluminescence. Intra-procedural MR thermometry automatically triggers an auto-stop if any tissue approaches ablative temperatures. […] Patients must have completed standard-of-care chemotherapy and radiotherapy prior to radiographic recurrence. In a Dose-Escalation Arm, 9-18 patients are assigned to one of three ascending acoustic energy doses of […], measured at transducer surface), followed by a four-day interval until tumor resection. In each patient, half the tumor volume, including Gadolinium-enhancing and non-enhancing tumor, is targeted with MRgFUS and the other half serves as an internal control. […]

For `NCC(=O)CCC(=O)O` [5-ALA, 5-aminolevulinic acid], the Cmax [1] was 307 µM, the 5-ALA-related photosensitivity [2] was “No patient demonstrated 5-ALA-related photosensitivity” and the 5-ALA-related photosensitivity [3] was “No patient demonstrated 5-ALA-related photosensitivity”.
